In PubChem BioAssay (NCI):
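Five compound concentrations were applied to cells in 96-well plates for 48 hours; endpoints were derived by simple linear interpolation of the resulting dose-response curve. TGI is the concentration that stops growth completely.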

Key:
Assay in all cases: NCI anticancer screen, dose series, 48 h
NCI-H23 lung = test system: NCI-H23 lung
CCRF-CEM leukemia = test system: CCRF-CEM leukemia
SF-295 CNS = test system: SF-295 CNS
SK-MEL-28 melanoma = test system: SK-MEL-28 melanoma
SR leukemia = test system: SR leukemia
HOP-62 NSCLC = test system: HOP-62 NSCLC
IGROV1 ovarian = test system: IGROV1 ovarian
NCI-H460 lung = test system: NCI-H460 lung
HL-60(TB) leukemia = test system: HL-60(TB) leukemia
UO-31 renal = test system: UO-31 renal
SNB-19 CNS = test system: SNB-19 CNS
PC-3 prostate = test system: PC-3 prostate
A549 NSCLC = test system: A549 NSCLC
NCI/ADR-RES ovarian = test system: NCI/ADR-RES ovarian
SK-MEL-5 melanoma = test system: SK-MEL-5 melanoma
CAKI-1 renal = test system: CAKI-1 renal
MALME-3M melanoma = test system: MALME-3M melanoma
RXF 393 renal = test system: RXF 393 renal
T-47D breast = test system: T-47D breast
KM12 colon = test system: KM12 colon

Measured: TGI

CC(C)CNC(=O)Cn1c2c(c3ccccc31)CCCC2
not listed: RXF 393 renal | T-47D breast | KM12 colon
> 100 µM: all other assays above

Cc1ccc(-n2cnc3c(N/N=C4\SCC(=O)N4c4ccccc4)ncnc32)cc1
53.8 µM: NCI/ADR-RES ovarian
24.4 µM: SNB-19 CNS
4.93 µM: CCRF-CEM leukemia
27.6 µM: SF-295 CNS
5.8 µM: RXF 393 renal
16 µM: SK-MEL-5 melanoma
4.29 µM: HL-60(TB) leukemia
16.3 µM: MALME-3M melanoma
29.6 µM: A549 NSCLC
11.4 µM: SK-MEL-28 melanoma
18.9 µM: CAKI-1 renal
7.88 µM: KM12 colon
13.2 µM: NCI-H460 lung
18.7 µM: T-47D breast
17.9 µM: UO-31 renal
17.8 µM: PC-3 prostate
14 µM: NCI-H23 lung
28.9 µM: HOP-62 NSCLC
15 µM: IGROV1 ovarian

NC1CNC(=O)c2cscc21 (stereo unspecified)
not listed: HOP-62 NSCLC | T-47D breast
> 100 µM: all other assays above

Nc1ccc(S(=O)(=O)c2ccc(NC(=O)c3cccnc3)cc2)cc1
not listed: CCRF-CEM leukemia | SR leukemia
> 100 µM: all other assays above

COc1ccc(NCC(=O)Nn2c(C)nc3ccc(S(=O)(=O)Nc4ccc(OC)cc4)cc3c2=O)cc1
not listed: SK-MEL-5 melanoma | RXF 393 renal | T-47D breast
> 100 µM: all other assays above

COc1ccc(C2NC3=C(CCCC3)C3(C#N)C(=O)N=C(N)C23C#N)cc1 (stereo unspecified)
91.9 µM: CCRF-CEM leukemia
not listed: SR leukemia
> 100 µM: all other assays above

Cc1ccc(NC(=O)CC(=O)n2nc(C)c(N=Nc3ccc(S(=O)(=O)CCOS(=O)(=O)O)cc3)c2C)cc1
not listed: SR leukemia | CAKI-1 renal
> 100 µM: all other assays above

Cn1c(COC(=O)NC2CCCCC2)c(COC(=O)NC2CCCCC2)c2ccc3cc(Cl)c(Cl)cc3c21
11.3 µM: CCRF-CEM leukemia
39.1 µM: IGROV1 ovarian
36.4 µM: KM12 colon
17.3 µM: NCI-H460 lung
26.1 µM: SNB-19 CNS
10.4 µM: CAKI-1 renal
32.9 µM: PC-3 prostate
> 100 µM: SF-295 CNS | A549 NSCLC | NCI/ADR-RES ovarian
25.9 µM: MALME-3M melanoma
21.4 µM: RXF 393 renal
26.4 µM: HL-60(TB) leukemia | SK-MEL-5 melanoma
50.2 µM: SK-MEL-28 melanoma
66.7 µM: UO-31 renal
40.5 µM: NCI-H23 lung
22.4 µM: T-47D breast

C=CC12CN(C)C3C4COC(CC41)C1(C(=O)Nc4ccccc41)C32 (stereo unspecified)
> 195 µM: CCRF-CEM leukemia
> 186 µM: HL-60(TB) leukemia
not listed: SR leukemia | PC-3 prostate | T-47D breast
> 200 µM: all other assays above

CN1C(=O)C(O)CC1c1cccc(F)c1 (stereo unspecified)
not listed: T-47D breast
> 100 µM: all other assays above

N#Cc1c2c([nH]c(=O)c1C#N)CCCC2
not listed: SR leukemia | HOP-62 NSCLC
> 100 µM: all other assays above

CC(=O)O[C@]12CCC[C@H]1C1(O)C(O)CCC[C@H]12 (stereo partly specified)
not listed: IGROV1 ovarian | PC-3 prostate | NCI/ADR-RES ovarian | CAKI-1 renal | T-47D breast
> 100 µM: all other assays above

CC(Oc1ccc(OCC2CCCCC2)cc1)C(=O)N(CCO)CCO (stereo unspecified)
not listed: SR leukemia | HOP-62 NSCLC | PC-3 prostate | NCI/ADR-RES ovarian | CAKI-1 renal | T-47D breast
> 100 µM: all other assays above

O=C1C=CC(=O)c2c(O)c(N[C@@H](Cc3ccccc3)C(=O)OCc3ccccc3)c(Cl)c(O)c21
5.62 µM: NCI/ADR-RES ovarian
8.18 µM: SK-MEL-5 melanoma
not listed: SR leukemia | UO-31 renal
> 10 µM: all other assays above

Cc1cccc(Nc2cn(CCOc3ccccc3)c(=O)n(CCOc3ccccc3)c2=O)c1
not listed: HL-60(TB) leukemia | NCI/ADR-RES ovarian | MALME-3M melanoma | T-47D breast
> 100 µM: all other assays above

CCOC(=O)C(NC(=O)NC(C(=O)OCC)C(=O)OCC)C(=O)OCC
not listed: CCRF-CEM leukemia | HL-60(TB) leukemia | T-47D breast | KM12 colon
> 100 µM: all other assays above

CC(CCc1ccc2c(c1)c(=N)c1ccc(N)cc1n2O)CC(C)(C)C (stereo unspecified)
2.95 µM: IGROV1 ovarian
4.03 µM: SR leukemia
3.01 µM: SK-MEL-5 melanoma
3.42 µM: HL-60(TB) leukemia
3.58 µM: SK-MEL-28 melanoma
4.43 µM: RXF 393 renal
2.69 µM: CCRF-CEM leukemia
34 µM: UO-31 renal
3.19 µM: CAKI-1 renal
3.37 µM: MALME-3M melanoma
3.22 µM: A549 NSCLC
3.31 µM: HOP-62 NSCLC
3.51 µM: KM12 colon
7.29 µM: SF-295 CNS

CC(C)N1CSC(=S)N(Cc2ccccc2)C1
6.27 µM: RXF 393 renal
4.81 µM: SR leukemia
0.652 µM: HL-60(TB) leukemia
not listed: UO-31 renal | CAKI-1 renal | MALME-3M melanoma
> 10 µM: all other assays above

Cn1c(=O)nc2n(-c3ccc(Cl)cc3Cl)c3ccccc3nc-2c1=O
10.6 µM: SF-295 CNS
3.36 µM: SK-MEL-5 melanoma
13.2 µM: CAKI-1 renal
23.9 µM: HOP-62 NSCLC
23.5 µM: SK-MEL-28 melanoma
27.8 µM: HL-60(TB) leukemia
26 µM: UO-31 renal
27 µM: IGROV1 ovarian
15.4 µM: RXF 393 renal
26.5 µM: SNB-19 CNS
3.26 µM: MALME-3M melanoma
13.3 µM: A549 NSCLC
15.8 µM: KM12 colon
22 µM: NCI-H23 lung
> 100 µM: SR leukemia

COC(=O)[C@@]12OC[C@]34C([C@@H](O)C1O)[C@@]1(C)CC(=O)C(O)=C(C)C1C[C@H]3OC(=O)[C@H](OC(=O)CC(C)C(F)(F)F)[C@H]42 (stereo partly specified)
0.563 µM: KM12 colon
0.594 µM: HOP-62 NSCLC
0.0438 µM: MALME-3M melanoma
0.0175 µM: HL-60(TB) leukemia
1.07 µM: CAKI-1 renal
0.0731 µM: SK-MEL-5 melanoma
0.108 µM: SNB-19 CNS
0.0554 µM: NCI-H460 lung
1.06 µM: UO-31 renal
0.471 µM: RXF 393 renal
0.492 µM: A549 NSCLC
0.0717 µM: NCI-H23 lung
0.111 µM: SK-MEL-28 melanoma
0.0215 µM: SR leukemia
1.05 µM: IGROV1 ovarian
0.191 µM: SF-295 CNS

O=C(CC(C(=O)c1ccsc1)c1ccccc1)c1cccs1 (stereo unspecified)
45.3 µM: T-47D breast
95.7 µM: UO-31 renal
67.9 µM: NCI/ADR-RES ovarian
88.6 µM: KM12 colon
77.3 µM: NCI-H23 lung
not listed: SNB-19 CNS | PC-3 prostate | A549 NSCLC | MALME-3M melanoma
> 100 µM: all other assays above

CCN1C(=O)C(=Cc2ccc(-c3ccccc3)cc2)C(=O)N(CC)C1=S
not listed: SR leukemia
> 100 µM: all other assays above

CCOC(CCCN1CCC2(CC1)C(=O)N(C)CN2c1ccccc1)(OCC)c1ccc(F)cc1
34.6 µM: RXF 393 renal
30.6 µM: HL-60(TB) leukemia
23.9 µM: A549 NSCLC
22.6 µM: SNB-19 CNS
39.5 µM: NCI-H23 lung
19.8 µM: UO-31 renal
29.8 µM: T-47D breast
49.2 µM: CAKI-1 renal
18.7 µM: CCRF-CEM leukemia
14.9 µM: SK-MEL-5 melanoma
29.6 µM: PC-3 prostate
31.2 µM: IGROV1 ovarian | MALME-3M melanoma
25.3 µM: SF-295 CNS
30.5 µM: SK-MEL-28 melanoma
33.5 µM: NCI/ADR-RES ovarian
29.5 µM: KM12 colon
14.7 µM: HOP-62 NSCLC

O=C(Nc1ccc([N+](=O)[O-])cc1)C(=O)C(C(=O)c1ccccc1F)C1OC(=O)c2ccccc21 (stereo unspecified)
66.1 µM: HL-60(TB) leukemia
64.7 µM: SR leukemia
58.4 µM: CCRF-CEM leukemia
79.6 µM: RXF 393 renal
not listed: PC-3 prostate | NCI/ADR-RES ovarian | MALME-3M melanoma | T-47D breast
> 100 µM: all other assays above

CSCC[C@H]1C(=O)N=C(N)N1C(=O)OCc1ccccc1
55.8 µM: SR leukemia
44.8 µM: HL-60(TB) leukemia
55.4 µM: NCI-H23 lung
45.6 µM: RXF 393 renal
96.8 µM: SK-MEL-28 melanoma
44.3 µM: CAKI-1 renal
not listed: CCRF-CEM leukemia | A549 NSCLC | T-47D breast
> 100 µM: all other assays above

C1=NCCOCCN=Cc2ccccc2OCc2cccc(n2)COc2ccccc21
16.3 µM: HL-60(TB) leukemia
22.5 µM: MALME-3M melanoma
9.91 µM: SR leukemia
13.4 µM: NCI/ADR-RES ovarian
12 µM: SF-295 CNS
not listed: SK-MEL-5 melanoma | CAKI-1 renal | T-47D breast
> 25 µM: all other assays above

O=C(O)C/C(=C\c1ccccc1)C(=O)O
not listed: SR leukemia
> 100 µM: all other assays above
